Experimental findings from PubChem BioAssay (NCI) are described below.

SMILES strings stand for the structures.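 Assay format: 96-well plates, 48-hour exposure. TGI: total growth inhibition.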

Test systems include RPMI-8226 leukemia; OVCAR-5 ovarian; KM12 colon; SF-539 CNS; UO-31 renal; IGROV1 ovarian; HT29 colon; HCT-116 colon; SR leukemia; SNB-19 CNS; EKVX NSCLC; HCC-2998 colon; HL-60(TB) leukemia; OVCAR-8 ovarian; SK-MEL-2 melanoma; OVCAR-3 ovarian; MCF7 breast; MDA-N; A549 NSCLC.
Common to all, as to assay: growth of human tumour cells (NCI), 48 h

Take `CC(=O)c1ccccc1NS(=O)(=O)c1ccc2nc(C)n(NS(=O)(=O)c3ccccc3C(C)=O)c(=O)c2c1`: the TGI in the assay on RPMI-8226 leukemia, with OVCAR-5 ovarian, in the assay with KM12 colon, with SF-539 CNS, in the assay with UO-31 renal and in the assay on IGROV1 ovarian was above 100 µM in each case. Besides, the TGI in the assay on HT29 colon, in the assay on HCT-116 colon, with SR leukemia, in the assay with SNB-19 CNS, with EKVX NSCLC and in the assay with HCC-2998 colon was above 100 µM throughout. The TGI with HL-60(TB) leukemia, with OVCAR-8 ovarian, in the assay with SK-MEL-2 melanoma, in the assay with OVCAR-3 ovarian, with MCF7 breast and in the assay on MDA-N was above 100 µM in each case.

On to `CCCCN1C(=O)CS/C1=N/Nc1nc2c([nH]1)c(=O)n(C)c(=O)n2C`, for which the TGI in the assay with RPMI-8226 leukemia is above 100 µM; in the assay with OVCAR-5 ovarian, 59.4 µM; in the assay on KM12 colon it was above 100 µM; in the assay on SF-539 CNS, above 100 µM; with UO-31 renal, above 100 µM; in the assay on IGROV1 ovarian, above 100 µM. Further, the TGI in the assay on HT29 colon was above 100 µM; with HCT-116 colon it was 29.3 µM; with SR leukemia it was 38.1 µM; with SNB-19 CNS it was above 100 µM; in the assay with EKVX NSCLC it was above 100 µM; in the assay with HCC-2998 colon, above 100 µM. The TGI was above 100 µM in the assay on HL-60(TB) leukemia; above 100 µM with SK-MEL-2 melanoma; above 100 µM with OVCAR-3 ovarian; 31.3 µM with MCF7 breast; 36.6 µM with MDA-N; above 100 µM with A549 NSCLC.

With `CSc1ccc2c(cc1=O)[C@@H](NC(=O)c1ccc([N+](=O)[O-])cc1)CCc1cc(O)c(O)c(O)c1-2`, the TGI is above 100 µM in the assay with RPMI-8226 leukemia; above 100 µM in the assay on OVCAR-5 ovarian; 37.4 µM in the assay with KM12 colon; above 100 µM with SF-539 CNS; above 100 µM with UO-31 renal; above 100 µM in the assay on IGROV1 ovarian. Further, the TGI with HT29 colon was 40.8 µM; in the assay with HCT-116 colon it was above 100 µM; in the assay with SR leukemia it was above 100 µM; in the assay on SNB-19 CNS it was above 100 µM; with EKVX NSCLC, above 100 µM; in the assay with HCC-2998 colon it was above 100 µM. In addition, the TGI with HL-60(TB) leukemia is 57.5 µM; with OVCAR-8 ovarian, above 100 µM; with SK-MEL-2 melanoma, above 100 µM; with OVCAR-3 ovarian, 31.1 µM; in the assay on MCF7 breast it was above 100 µM; in the assay with MDA-N, 67.4 µM. In the assay with A549 NSCLC, the TGI was determined as 77.7 µM.

Take `COc1ccc(-c2nc3cc(C(F)(F)F)ccc3n2CC2CCCN3CCCCC23)cc1` (configuration not stated): the TGI is 28.4 µM with RPMI-8226 leukemia; 62.9 µM with OVCAR-5 ovarian; 45.2 µM in the assay with KM12 colon; 30.5 µM in the assay on SF-539 CNS; 38.8 µM with UO-31 renal; 26.9 µM with IGROV1 ovarian. Further, the TGI in the assay with HT29 colon amounted to 26.1 µM; in the assay with HCT-116 colon, 33.6 µM; in the assay on SR leukemia, 31.3 µM; with EKVX NSCLC, 24.5 µM; in the assay on HCC-2998 colon it was 24.5 µM; in the assay on HL-60(TB) leukemia, 30.6 µM. Besides, the TGI with OVCAR-8 ovarian is 30.8 µM; in the assay on SK-MEL-2 melanoma, 28.9 µM; with OVCAR-3 ovarian it was 37.1 µM; with MCF7 breast, 25.9 µM; in the assay on MDA-N it was 33.4 µM.

As for `O=[p+]1c2ccccc2[nH]c2ccccc21`, the TGI in the assay with OVCAR-5 ovarian, in the assay on KM12 colon, in the assay with SF-539 CNS, with IGROV1 ovarian, with HT29 colon and in the assay on HCT-116 colon was above 100 µM throughout. Further, the TGI in the assay on SR leukemia, in the assay on SNB-19 CNS, in the assay with EKVX NSCLC, with HCC-2998 colon, in the assay with HL-60(TB) leukemia and with OVCAR-8 ovarian was above 100 µM in each case. Further, the TGI with SK-MEL-2 melanoma, with OVCAR-3 ovarian, in the assay with MCF7 breast, in the assay on MDA-N and with A549 NSCLC was above 100 µM each time.

As to `Cc1nc2ccccc2c(=O)n1/N=C/c1ccc(N(C)C)cc1`, the TGI in the assay with RPMI-8226 leukemia, in the assay on OVCAR-5 ovarian, in the assay with KM12 colon, with SF-539 CNS, with IGROV1 ovarian and in the assay on HT29 colon was above 100 µM in each case. Moreover, the TGI with HCT-116 colon, in the assay on SR leukemia, in the assay with SNB-19 CNS, with EKVX NSCLC, with HCC-2998 colon and in the assay on HL-60(TB) leukemia was above 100 µM each time. The TGI in the assay on OVCAR-8 ovarian, in the assay on SK-MEL-2 melanoma, in the assay with OVCAR-3 ovarian, in the assay on MCF7 breast, with MDA-N and in the assay on A549 NSCLC was above 100 µM in each case.

As to `Cc1ccc(C)c(COCCOCn2c(=O)[nH]c(=O)c3cc(Br)ccc32)c1`, the TGI in the assay on OVCAR-5 ovarian, in the assay with KM12 colon, in the assay with SF-539 CNS, in the assay with UO-31 renal, in the assay with IGROV1 ovarian and with HT29 colon was above 100 µM throughout. For the same compound, the TGI with HCT-116 colon, in the assay with SR leukemia, with SNB-19 CNS, in the assay on EKVX NSCLC, in the assay on HCC-2998 colon and with HL-60(TB) leukemia was above 100 µM throughout. The TGI in the assay on OVCAR-8 ovarian, with SK-MEL-2 melanoma, in the assay with OVCAR-3 ovarian, with MCF7 breast, in the assay with MDA-N and in the assay with A549 NSCLC was above 100 µM throughout.

With `COc1cc(C(=O)OCCn2[nH]c(-c3ccc(Cl)cc3)nc2=S)cc(OC)c1OC`, the TGI was above 100 µM in the assay on OVCAR-5 ovarian; above 100 µM in the assay with KM12 colon; above 100 µM in the assay on SF-539 CNS; 24.2 µM in the assay on UO-31 renal; above 100 µM in the assay on HT29 colon; above 100 µM in the assay with HCT-116 colon. Besides, the TGI in the assay on SR leukemia, in the assay with SNB-19 CNS, in the assay with EKVX NSCLC, in the assay on HCC-2998 colon, in the assay on HL-60(TB) leukemia and with OVCAR-8 ovarian was above 100 µM each time. Besides, the TGI with SK-MEL-2 melanoma, in the assay with OVCAR-3 ovarian, with MCF7 breast, in the assay with MDA-N and in the assay with A549 NSCLC was above 100 µM in each case.
